What all share (type): cell-based
Assay [1] deals with T1, human somatostatin receptor subtype 2 (Homo sapiens, UniProt P30874).
T1 construct: expressed in transfected cells
Briefly: Functional cAMP assay for SSTR2 agonists (HTRF) in CHO-K1 cells. The note with it: CHO-K1 cells stably expressing human SST2, 20 min; for pEC50: read-out: hSST2 cAMP Avg EC50. Summed up:
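Agonism scored as loss of NKH477 (1.6 μM)-driven cAMP, with IBMX present, after 20 min, 37° C. exposure of stably transfected CHO-K1 cells to compound dilutions (typically 0-10,000 nM). Lysates read by time-resolved FRET; cAMP interpolated from standard curve and EC50 derived.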
(Changes in cAMP serve as a functional read-out for many G protein-coupled receptors.)

In assay [2] the target is T2, SST2 (Homo sapiens, UniProt P30874).
T2 construct: host or cells: PathHunter CHO-K1 SST2 cells
Briefly: PathHunter CHO-K1 SST2 internalization assay. The note with it: PathHunter CHO-K1 SST2, 90 min; for pEC50: read-out: Internalization EC50. In a few lines: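 IC50 comes from four-parameter curves on background-corrected duplicates of Beta-Glo luminescence, read after 60 min at room temperature in the dark. Before that, CHO-K1 SST2 internalization cells (48 h post-seeding) received SMDC as eleven threefold dilutions, 10 uM highest final, for 90 min at 37 C.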

Assay [3] deals with NCI-H524 (ATCC) human small cell lung cancer cells. In a few lines:
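CellTiter-Glo luminescence after a 2 h SMDC pulse (top dose 1 uM, 2-fold dilutions, 11 points), medium wash, then 70 h recovery. Cells were seeded at 5,000/well and dosed 24 h later. % inhibition vs control gave IC50 via four-parameter fit.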

EC50 data for eleven molecules are collected here from patent publication US12134610B2, “Somatostatin subtype-2 receptor (SST2R) targeted therapeutics and uses thereof” (priority 2022, dated 2024).

pEC50: −log10 of the molar value. Like-named read-outs stand apart in the source and are kept apart here. Starred links: 1 amine or outer side, 2 acyl side, 3 side chain; linkers in the order of their positions; H or OH if unused. Non-standard residues stand in square brackets, D forms with d. Residues, ends and D or L forms follow the SMILES beside them. *: point of attachment. X1 = Cc1cc(F)cc(-c2cnc(NCCNC(=O)CCOCCC(=O)*)c(-c3nc4ccc(Cl)cc4[nH]3)c2N2CCC(N)CC2)c1; Dolaproine = CO[C@@H]([C@@H]1CCCN1)[C@@H](C)C(=O)O; Dil = CC[C@H](C)[C@H](NC)[C@@H](CC(=O)O)OC; PABC = O=C(OCc1ccc(N[*:1])cc1)[*:2]; X2 = C[C@@H](N*)[C@@H](O)c1ccccc1; Cit = NC(=O)NCCC[C@H](N)C(=O)O; NMeV = CN[C@H](C(=O)O)C(C)C

T2 sequence (P30874 whole entry): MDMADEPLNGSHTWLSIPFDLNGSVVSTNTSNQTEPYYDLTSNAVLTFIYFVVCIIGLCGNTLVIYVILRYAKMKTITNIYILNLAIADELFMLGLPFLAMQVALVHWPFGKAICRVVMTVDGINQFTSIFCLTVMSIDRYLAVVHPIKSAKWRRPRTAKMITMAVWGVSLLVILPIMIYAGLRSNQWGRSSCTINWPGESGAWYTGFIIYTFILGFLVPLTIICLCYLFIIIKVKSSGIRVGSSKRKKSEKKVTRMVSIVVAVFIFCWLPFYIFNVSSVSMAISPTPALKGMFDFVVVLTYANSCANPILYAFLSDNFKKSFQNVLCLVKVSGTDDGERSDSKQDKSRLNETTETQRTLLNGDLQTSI
T1 sequence (P30874 whole entry): as above

Regarding `COc1cc2cc(c1Cl)N(C)C(=O)C[C@H](OC(=O)[C@@H](C)N(C)C(=O)CCSSCCOCCOCCOCCC(=O)NCCNc1ncc(-c3cc(C)cc(F)c3)c(N3CCC(N)CC3)c1-c1nc3ccc(Cl)cc3[nH]1)[C@]1(C)OC1[C@@H](C)C1C[C@@](O)(NC(=O)O1)[C@H](OC)/C=C/C=C(\C)C2` (stereo partly drawn) [Compound 19, (2S,5S,6S,16E,18E,20R,21S)-11-chloro-21-hydroxy-12,20-dimethoxy-2,5,9,16-tetramethyl-8,23-dioxo-4,24-dioxa-9,22-diazatetracyclo[19.3.1.1^10,14.0^3,5]hexacosa-10,12,14(26),16,18-pentaen-6-yl (2R)-2-{1-[(2-{[4-(4-aminopiperidin-1-yl)-3-(6-chloro-1H-1,3-benzodiazol-2-yl)-5-(3-fluoro-5-methylphenyl)pyridin-2-yl]amino}ethyl)carbamoyl]-N-methyl-3,6,9-trioxa-12,13-dithiahexadecan-16-amido}propanoate], the pEC50 (usually −log10 of the EC50, conventionally taken in molar units) is 9.36 in assay [1], 8.15 in assay [2] and 7.70 in assay [3] (2 h).

Turning to `COc1cc2cc(c1Cl)N(C)C(=O)CC(OC(=O)[C@@H](C)N(C)C(=O)CCSSCCC(=O)NCCNc1ncc(-c3cc(C)cc(F)c3)c(N3CCC(N)CC3)c1-c1nc3ccc(C(N)=O)cc3[nH]1)[C@]1(C)OC1[C@@H](C)C1C[C@@](O)(NC(=O)O1)[C@H](OC)/C=C/C=C(\C)C2` (stereo partly drawn) [Compound 23, (16E,18E)-11-chloro-21-hydroxy-12,20-dimethoxy-2,5,9,16-tetramethyl-8,23-dioxo-4,24-dioxa-9,22-diazatetracyclo[19.3.1.1^10,^14.0^3,^5]hexacosa-10,12,14(26),16,18-pentaen-6-yl 2-[3-({2-[(2-{[4-(4-aminopiperidin-1-yl)-3-(6-carbamoyl-1H-1,3-benzodiazol-2-yl)-5-(3-fluoro-5-methylphenyl)pyridin-2-yl]amino}ethyl)carbamoyl]ethyl}disulfanyl)-N-methylpropanamido]propanoate], the negative logarithm of the EC50 (pEC50) was 9.18 in assay [1], 6.61 in assay [2] and 6.88 in assay [3] (2 h).

As for `CC[C@H](C)[C@@H]([C@@H](CC(=O)N1CCC[C@H]1[C@H](OC)[C@@H](C)C(=O)N[C@H](C)[C@@H](O)c1ccccc1)OC)N(C)C(=O)[C@@H](NC(=O)[C@H](C(C)C)N(C)C(=O)OCc1ccc(NC(=O)[C@H](CCCNC(N)=O)NC(=O)[C@@H](NC(=O)[C@H](CCC(N)=O)NC(=O)CCOCCOCCOCCOCCC(=O)NCCNc2ncc(-c3cc(C)cc(F)c3)c(N3CCC(N)CC3)c2-c2nc3ccc(Cl)cc3[nH]2)C(C)C)cc1C(=O)NCCN)C(C)C` [Compound 58], the pEC50 in assay [1] is 9.43; in assay [2] it was 8.30; in assay [3] (2 h), 7.96.

Consider `CC[C@H](C)[C@@H]([C@@H](CC(=O)N1CCC[C@H]1[C@H](OC)[C@@H](C)C(=O)N[C@H](C)[C@@H](O)c1ccccc1)OC)N(C)C(=O)[C@@H](NC(=O)[C@H](C(C)C)N(C)C(=O)OCc1ccc(NC(=O)[C@H](CCCNC(N)=O)NC(=O)[C@@H](NC(=O)[C@@H](CCC(=O)O)NC(=O)CCOCCC(=O)NCCNc2ncc(-c3cc(C)cc(F)c3)c(N3CCC(N)CC3)c2-c2nc3ccc(Cl)cc3[nH]2)C(C)C)cc1)C(C)C` [Compound 102] (X1-[dE]V[Cit][PABC][NMeV]V[Dil][Dolaproine]-X2), for which the negative logarithm of the EC50 (pEC50) in assay [1] was 10.17; in assay [2], 7.72; in assay [3] (2 h) it was 6.89.

As for `CC[C@H](C)[C@@H]([C@@H](CC(=O)N1CCC[C@H]1[C@H](OC)[C@@H](C)C(=O)N[C@H](C)[C@@H](O)c1ccccc1)OC)N(C)C(=O)[C@@H](NC(=O)[C@H](C(C)C)N(C)C(=O)OCc1ccc(NC(=O)[C@H](CCCNC(N)=O)NC(=O)[C@@H](NC(=O)CCOCCOCCOCCOCCNCCNc2ncc(-c3cc(C)cc(F)c3)c(N3CCC(N)CC3)c2-c2nc3ccc(Cl)cc3[nH]2)C(C)C)c(O[C@@H]2O[C@H](C(=O)O)[C@@H](O)[C@H](O)[C@H]2O)c1)C(C)C` [Compound 129], the pEC50 in assay [1] was 9.47; in assay [2] it was 7.68; in assay [3] (2 h) it was 6.54.

`COc1cc2cc(c1Cl)N(C)C(=O)C[C@H](OC(=O)[C@H](C)N(C)C(=O)CCSSCCNC(=O)CCOCCNC(=O)C[C@@H](N)C(=O)NCCNc1ncc(-c3cc(C)cc(F)c3)c(N3CCC(N)CC3)c1-c1nc3ccc(Cl)cc3[nH]1)[C@]1(C)O[C@H]1[C@H](C)[C@@H]1C[C@@](O)(NC(=O)O1)[C@H](OC)/C=C/C=C(\C)C2` [Compound 77]: the figures for the pEC50 in assay [1], in assay [2] and in assay [3] (2 h) were 9.68, 8.28 and 7.77, respectively.

As for `CC[C@H](C)[C@@H]([C@@H](CC(=O)N1CCC[C@H]1[C@H](OC)[C@@H](C)C(=O)N[C@H](C)[C@@H](O)c1ccccc1)OC)N(C)C(=O)[C@@H](NC(=O)[C@H](C(C)C)N(C)C(=O)OCc1ccc(NC(=O)[C@H](C)NC(=O)[C@@H](NC(=O)CCCC(=O)N(C)CC(=O)NCCNc2ncc(-c3cc(C)cc(F)c3)c(N3CCC(N)CC3)c2-c2nc3ccc(Cl)cc3[nH]2)C(C)C)c(O[C@@H]2O[C@H](C(=O)O)[C@@H](O)[C@H](O)[C@H]2O)c1)C(C)C` [Compound 140], the values for the pEC50 in assay [1], in assay [2] and in assay [3] (2 h) were 9.48, 8.74 and 8.27, respectively.

`CC[C@H](C)[C@@H]([C@@H](CC(=O)N1CCC[C@H]1[C@H](OC)[C@@H](C)C(=O)N[C@H](C)[C@@H](O)c1ccccc1)OC)N(C)C(=O)[C@@H](NC(=O)[C@H](C(C)C)N(C)C(=O)OCc1ccc(NC(=O)[C@H](CCCNC(N)=O)NC(=O)[C@@H](NC(=O)CCOCCOCCOCCOCCC(=O)NCCNc2ncc(-c3cc(C)cc(F)c3)c(N3CCC(N)CC3)c2-c2nc3ccc(Cl)cc3[nH]2)C(C)C)c(O[C@@H]2O[C@H](C(=O)O)[C@@H](O)[C@H](O)[C@H]2O)c1)C(C)C` [Compound 62]: the pEC50 was 9.70 in assay [1], 7.85 in assay [2] and 7.21 in assay [3] (2 h).

On to `CC[C@H](C)[C@@H]([C@@H](CC(=O)N1CCC[C@H]1[C@H](OC)[C@@H](C)C(=O)N[C@H](C)[C@@H](O)c1ccccc1)OC)N(C)C(=O)[C@@H](NC(=O)[C@H](C(C)C)N(C)C(=O)OCc1ccc(NC(=O)[C@H](C)NC(=O)[C@@H](NC(=O)[C@H](CS(=O)(=O)O)NC(=O)CCOCCOCCOCCOCCC(=O)NCCNc2ncc(-c3cc(C)cc(F)c3)c(N3CCC(N)CC3)c2-c2nc3ccc(Cl)cc3[nH]2)C(C)C)cc1C(=O)NCCN)C(C)C` [Compound 158], for which the values for the pEC50 in assay [1], in assay [2] and in assay [3] (2 h) were 9.62, 7.92 and 8.52, respectively.

On to `CC[C@@]1(O)C(=O)OCc2c1cc1n(c2=O)Cc2c-1nc1cc(F)c(C)c3c1c2[C@@H](NC(=O)OCc1ccc(NC(=O)[C@H](CCCNC(N)=O)NC(=O)[C@@H](NC(=O)[C@H](CCC(=O)O)NC(=O)CCOCCC(=O)NCCNc2ncc(-c4cc(C)cc(F)c4)c(N4CCC(N)CC4)c2-c2nc4ccc(Cl)cc4[nH]2)C(C)C)cc1)CC3` [Compound 71], for which the EC50 (as a rule, the midpoint of the concentration-response curve) in assay [1] (hSST2 cAMP Avg EC50 (nM)) came to 0.29 nM; in assay [2] (Internalization EC50 (nM)) it was 1.6 nM. For the same molecule, the negative logarithm of the EC50 (pEC50) in assay [3] (2 h treatment, washout, additional 70 h, read-out: H524 EC50) is 6.57.

Consider `CC[C@H](C)[C@@H]([C@@H](CC(=O)N1CCC[C@H]1[C@H](OC)[C@@H](C)C(=O)N[C@H](C)[C@@H](O)c1ccccc1)OC)N(C)C(=O)[C@@H](NC(=O)[C@H](C(C)C)N(C)C(=O)OCc1ccc(NC(=O)[C@H](CCCNC(N)=O)NC(=O)[C@@H](NC(=O)[C@H](CCC(N)=O)NC(=O)CCOCCC(=O)NCCNc2ncc(-c3cc(C)cc(F)c3)c(N3CCC(N)CC3)c2-c2nc3ccc(Cl)cc3[nH]2)C(C)C)cc1C(=O)NC)C(C)C` [Compound 54], for which the figures for the negative-log EC50 (pEC50) in assay [1], in assay [2] and in assay [3] (2 h) were 9.77, 8.00 and 7.77, respectively.
